Key:
SD rats = test: Idiopathic pulmonary fibrosis (IPF) model, bleomycin-induced; format: in vivo, rat; details: pirfenidone 120 mg/kg intragastric, 28 days
Method: 50 Adult SD rats (Zhejiang Experimental Animal Center (Animal Production License Number: SCXK (Zhejiang, Chi-00, half male and half female were kept at 21-26° C. with 40-70% relative humidity, with free access to food and water.
After 7 days of adaptive feeding, the rats were randomly divided into 5 groups: sham operation group, idiopathic pulmonary fibrosis model group, Monte gavage administrating group, Monte inhalation administrating group and pirfenidone control group.
The rats were anaesthetized and placed on an operating table in the supine position, exposing the trachea. 150 μL of Bleomycin (Bleomycin Hydrochloride for Injection, Zhejiang Hisun Pharmaceutical Co. Ltd, China) in saline solution was injected into the trachea through the gap between the tracheal cartilage at 5 mg/kg. (The sham-operation group were given an equal volume of normal saline.)
The rats were lifted vertically after administration and were rotated to allow the drug to evenly disperse. Once the rats recovered, after approximately 7 days, they were administrated different drugs according to Table 1 below. […]

BALB/c mice = test: Mouse ear swelling model (xylene induced); format: in vivo; details: cream 5 mg/g, 500 μg/mouse on right ear, 40 minutes
Method: 35 healthy male BALB/c mice of 6-8 weeks of age and average body weight of 18-25 g supplied by Changzhou Cvens Experimental Animal Co. Ltd. were housed and cared for about for 1 week prior to the experiment. The housing temperature was 25-27° C. with 74% humidity, with alternating 12 hour periods of light and darkness, and free access to food and water. The mice were randomly divided into 4 groups as described in Table 1 below, with 5 mice in each group.
The left ear of each mouse was used as autologous control. 20 μL of xylene (Shanghai Aladdin Bio-Chem Technology Co., Ltd., Shanghai, China) was applied to the right ear of each mouse, both inside and outside. The ear started to swell in about 4 minutes. Then, different amounts of each study treatments or vehicles (as described in Table 1 below) were applied to the right ears in each group. The mice were put back into their cages.
The mice were sacrificed by cervical dislocation after 40 minutes. The left and right ears were cut off. A skin pouch (Electron Microscopy Sciences, Hatfield, USA) with diameter of 8 mm was used to take a piece of ear from the same site of both ears. The weights were recorded the weights and the swelling rates were calculated as follows:
Swelling rate=(right ear weight−left ear weight)/left ear weight×100%

Compound	HYP (SD rats; lung) [μg/g wet weight]	IL-10 (SD rats; tissue) [pg/mg protein]	xylene induced swelling (BALB/c mice)
Cc1ccc(=O)n(-c2ccccc2)c1 [Postitive Control, pirfenidone]	755.49 ± 66.64	43.52 ± 4.30	
COc1cc(C(=O)NS(=O)(=O)c2ccccc2C)ccc1Cc1cn(C)c2ccc(NC(=O)OC3CCCC3)cc12 [zafirlukast]			significantly reduce

From patent US20220105082A1, “NEW FORMULATIONS CONTAINING LEUKOTRIENE RECEPTOR ANTAGONISTS” (JIANGYIN MUCOCARE PHARMACEUTICAL CO., LTD., priority 2019, published 2022)
